In patent US20080089851A1, “Brown Algae Cell Lyophilisate, Method For The Obtention Thereof” (BIOTECHMARINE, priority 2005, published 2008):

Experiments:
[1] = system: microsomes of human keratinocytes; assay: Transport of glucids (glucose), direct treatment of isolated microsomes; type: biochemical; conditions: for Capture of [^3H]3-O-MG: Phloretin 0.25 mM
Protocol: 7.1—Assessment of the Rate of Transport of Macromolecules (Glucids, Lipids and Proteins) in a System of Isolated Microsomes. Direct Effect of the BB Product on Isolated Microsomes: The microsomes of human keratinocytes form a membrane fraction obtained by high-speed differential centrifugation of a cell homogenate. This preparation of microsomes requires the addition of exogenous cofactors such as NADPH. 7.1.1—Transport of Glucids (Glucose) The assay was performed in triplicate after the direct treatment of microsomes. • Charge 1: negative control not receiving any product. • Charge 2: positive control (0.25 mM phloretin) • Charges 3-5: treated with the investigated product (3 concentrations) • Charges 6-8: treated with 0.25 mM phloretin and with the investigated product (3 concentrations) The obtained microsomes from human keratinocytes in culture were washed 3 times with a PBS buffer without glucose then pre-incubated in 1 ml of the same buffer for 30 minutes at 37° C. Subsequently, this solution was discarded and the microsomes placed into the glucose-free PBS buffer containing 3-0-Methyl glucose (MG) and [^3H] 3-0-MG with stirring in a water-bath at 37° C. The capture of 3-0-MG is stopped by addition of 1 ml of cold PBS containing cytochalasine B. The kinetics of incubation was performed between 30 and 120 seconds. The microsomes were further rinsed 2 times with PBS, then dissolved in NaOH (1M) at 4° C., over night. The radioactivity was determined with a scintillation counter. The treatments of microsomes with the BB product alone or in the presence of phloretin were carried out at the same time as the introduction of [3H] 3-0-MG into the incubation medium. The protein assay was performed following the BRADFORD method. The increase in absorbance at 595 nm, determined with spectrophotometer, is proportional to the protein concentration.

[2] = system: normal human keratinocytes; assay: Transport of glucides (glucose), normal human keratinocytes; type: cell-based; conditions: for Capture of [^3H]3-O-MG: Phloretin 0.25 mM
Protocol: The obtained microsomes from human keratinocytes in culture were washed 3 times with a PBS buffer without glucose then pre-incubated in 1 ml of the same buffer for 30 minutes at 37° C. Subsequently, this solution was discarded and the microsomes placed into the glucose-free PBS buffer containing 3-0-Methyl glucose (MG) and [^3H] 3-0-MG with stirring in a water-bath at 37° C. The capture of 3-0-MG is stopped by addition of 1 ml of cold PBS containing cytochalasine B. The kinetics of incubation was performed between 30 and 120 seconds. The microsomes were further rinsed 2 times with PBS, then dissolved in NaOH (1M) at 4° C., over night. The radioactivity was determined with a scintillation counter. 7.2—Assessment of the Rate of Transport of Macromolecules at the Level of Normal Human Keratinocytes The applied method was that of explants allowing to obtain, from a biopsy of human skin, keratinocytes in primary cultures. The assays were carried out on keratinocytes between the 2nd and the 4th passage in order to ensure a reproductibility between the different experiences. The keratinocytes were divided into multiwell plates (6 wells) at a rate of 10^5 cells per well in 1 ml of culture medium […] supplemented with insulin and hydrocortisone. The cells were incubated in the presence and absence of the investigated product. 7.2.1—Transport of Glucides (Glucose) The assay was carried out in triplicate on normal human keratinocytes in culture. • Charge 1: negative control not receiving any product. • Charge 2: positive control (0.25 mM Phloretin) • Charge 3: treated receiving the investigated product • Charges 6-8: treated with 0.25 mM phloretin and the investigated product (3 concentrations) The treatment of keratinocytes with the BB product in the presence and absence of 0.25 mM phloretin was carried out for 20 minutes at 37° C. The membrane microsomes were separated by differential centrifugation. The same protocol of capture of [3H] 3-0-Methyl-Glucose was adopted for the determination of the rate of transport of glucose. (cf. 6.1.1).

[3] = system: human keratinocytes in senescence; assay: Transport of glucids (glucose), human keratinocytes in senescence; type: cell-based; conditions: for Capture of [^3H]3-O-MG: Phloretin 0.25 mM
Protocol: The obtained microsomes from human keratinocytes in culture were washed 3 times with a PBS buffer without glucose then pre-incubated in 1 ml of the same buffer for 30 minutes at 37° C. Subsequently, this solution was discarded and the microsomes placed into the glucose-free PBS buffer containing 3-0-Methyl glucose (MG) and [^3H] 3-0-MG with stirring in a water-bath at 37° C. The capture of 3-0-MG is stopped by addition of 1 ml of cold PBS containing cytochalasine B. The kinetics of incubation was performed between 30 and 120 seconds. The microsomes were further rinsed 2 times with PBS, then dissolved in NaOH (1M) at 4° C., over night. The radioactivity was determined with a scintillation counter. 7.3-Assessment of the Rate of Transport of Macromolecules at the Level of Human Keratinocytes in Senescence The senescence is a phenomenon of cellular aging, where the cells are arrested in the phase G1 of the cell cycle and never enter the synthesis phase leading to the cell division. Senescent cells are characterized by their slow metabolism at synthesis and transport of macromolecules levels. The cells in culture deprived of serum stop their growth, but continue to progress through the cell cycle until they reach the phase G1. The applied method allowed to obtain, from a human skin biopsy, primary cultures of keratinocytes. The assays were performed on keratinocytes, between the 8th and the 10th passage, in order to ensure the presence of senescent cells at control cells level. The keratinocytes were seeded in multiwell plates (6 wells) at a rate of 10^5 cells per well in 3 ml of culture medium […] supplemented with EGF, hydrocortisone, insulin and […]. Afterwards they are maintained for 5 days in incubator under CO2. 7.3.1-Transport of Glucids (Glucose) The assay was carried out in triplicate on human keratinocytes in senescence. • Charge 1: negative control not receiving any product. • Charge 2: positive control (0.25 mM Phloretin) • Charge 3: treated receiving the investigated product • Charges 6-8: treated with 0.25 mM phloretin and with the investigated product (3 concentrations) The treatment of keratinocytes with the BB product in the presence and absence of 0.25 mM phloretin was performed for 20 minutes at 37° C. The membrane microsomes were separated by differential centrifugation. The same protocol of capture of [3H] 3-0-Methyl-Glucose was applied to the determination of the rate of transport of glucose (cf. 6.1.1).

[4] = system: reconstructed CORNEA Skinethic (keratinocytes of the TR 146 line); assay: Mucous tolerance: cytotoxicity (MTT colour) on reconstructed CORNEA Skinethic; type: cell-based, human; set-up: key to TOXICITY: NI = not irritant; I = irritant; VI = very irritant; conditions: for Colour of both cultures: MTT
Protocol: 1. —Experimental Protocol
Keratinocytes of the TR 146 line, spontaneously transformed, amplified, by cell culture in a defined modified MCDB 153 medium were used.
When cultured on the interface air/liquid in a defined medium, these human keratinocytes form a multilayered epithelium without the cornea layer similar to the human cornea.
The product to be investigated, in this case the BB product according to Example 3, is applied at a rate of 30 μL onto the surface of eight equivalent cultures using a micro-pipette. These cultures are subsequently incubated at 37° C., 5% of CO2, for 10 minutes, 1 hour, 3 hours and 24 hours, at a rate of two cultures by incubation period.
Negative (buffered saline solution) and positive (SDS 0.5% and 1%) controls are prepared sterile and applied in the same way on two cultures, respectively.
These cultures are subsequently incubated at 37° C., 5% of CO2, for 1 hour and 24 hours, at a rate of two cultures by incubation period.
2. —Assessment of the Cellular Viability
The cellular viability is further measured qualitatively after labelling with a vital dye. The MTT system measures the mitochondrial dehydrogenase activity of living cells. The key component is the 3-[4,5-dimethylthiazol-2-yl]-2,5-diphenyl tetrazolium bromide or MTT.
The salt solutions buffered with MTT, in the absence of phenol red, are yellow coloured. The mitochondrial deshydrogenases of living cells cut the tetrazolium cycle, thus inducing formation of purple formazan crystals, insoluble in aqueous solutions.
The crystals formed by the viable cells are trapped in the polycarbonate filters which serve as support to epithelial cultures. The cultures turn to a uniform intense blue/purple colour when they are viable, but remain white/yellow in the case of cell mortality.
The results are compared to negative and positive control substances.
0.15 ml of culture medium containing 10% vol/vol of MTT solution are pipetted under each filter/culture support. After an incubation of 30 min at room temperature, the colour of the different cultures is observed.
Negative control cultures should show an intense blue/purple colour, proof of the viability of mucosa after being in contact for 24 hours.
Positive control cultures should show a white colour, proof of the cellular mortality as from the 1st hour of contact.

Question: How did the “Capture of [^3H]3-O-MG” value ([1]; 30 s) turn out when `O=C(CCc1ccc(O)cc1)c1c(O)cc(O)cc1O` [Phloretin, phloretin] was run?
Answer: 4 nmol/mg proteins

Question: And the “Capture of [^3H]3-O-MG” value ([1]; 60 s)?
Answer: 6 nmol/mg proteins

Question: What about the “Capture of [^3H]3-O-MG” value ([1]; 90 s) of the same molecule?
Answer: 8 nmol/mg proteins

Question: What about the “Capture of [^3H]3-O-MG” value ([1]; 120 s) of the same molecule?
Answer: 8 nmol/mg proteins

Question: What about the “rate of transport of glucose (in words)” value ([1]; phloretin 0.25 mM alone) of the same molecule?
Answer: strongly inhibits

Question: And the “Capture of [^3H]3-O-MG” value ([2]; 30 s)?
Answer: 6 nmol/mg of proteins

Question: And the “Capture of [^3H]3-O-MG” value ([2]; 60 s)?
Answer: 8 nmol/mg of proteins

Question: And the “Capture of [^3H]3-O-MG” value ([2]; 90 s)?
Answer: 9 nmol/mg of proteins

Question: And the “Capture of [^3H]3-O-MG” value ([2]; 120 s)?
Answer: 10 nmol/mg of proteins

Question: And the “rate of transport of glucose (in words)” value ([2]; phloretin 0.25 mM alone)?
Answer: strongly inhibits

Question: And the “Capture of [^3H]3-O-MG” value ([3]; 30 s)?
Answer: 1 nmol/mg of proteins

Question: What about the “Capture of [^3H]3-O-MG” value ([3]; 60 s) of the same molecule?
Answer: 3 nmol/mg of proteins

Question: What about the “Capture of [^3H]3-O-MG” value ([3]; 90 s) of the same molecule?
Answer: 5 nmol/mg of proteins

Question: What about the “Capture of [^3H]3-O-MG” value ([3]; 120 s) of the same molecule?
Answer: 7 nmol/mg of proteins

Question: What about the “rate of transport of glucose (in words)” value ([3]; phloretin 0.25 mM alone) of the same molecule?
Answer: strongly inhibits

Question: With `CCCCCCCCCCCCOS(=O)(=O)[O-].[Na+]` [SDS] as the molecule, how does the TOXICITY ([4]; SDS 0.5%) read?
Answer: I

Question: What about the “Colour of both cultures” value ([4]; SDS 0.5%, 10 min) of the same molecule?
Answer: blue

Question: And the “Colour of both cultures” value ([4]; SDS 0.5%, 1 h)?
Answer: white

Question: And the “Colour of both cultures” value ([4]; SDS 0.5%, 3 h)?
Answer: white

Question: And the TOXICITY ([4]; SDS 1%)?
Answer: VI

Question: And the “Colour of both cultures” value ([4]; SDS 1%, 10 min)?
Answer: white

Question: What about the “Colour of both cultures” value ([4]; SDS 1%, 1 h) of the same molecule?
Answer: white
